# In ChEMBL document CHEMBL1140148, “Structure-activity studies on a series of a 2-aminopyrimidine-containing histamine H4 receptor ligands” (J Med Chem, 2008):
# Target: Histamine H4 receptor (Rattus norvegicus, UniProt Q91ZY1)
# Test: Agonist activity at rat histamine H4 receptor expressed in HEK293 cells coexpressing Gqi5 protein assessed as calcium flux by FLIPR assay
# Format: functional, cell-based
# Details: not given
# Chain of Histamine H4 receptor (Rattus norvegicus, UniProt Q91ZY1) (Q91ZY1 whole entry): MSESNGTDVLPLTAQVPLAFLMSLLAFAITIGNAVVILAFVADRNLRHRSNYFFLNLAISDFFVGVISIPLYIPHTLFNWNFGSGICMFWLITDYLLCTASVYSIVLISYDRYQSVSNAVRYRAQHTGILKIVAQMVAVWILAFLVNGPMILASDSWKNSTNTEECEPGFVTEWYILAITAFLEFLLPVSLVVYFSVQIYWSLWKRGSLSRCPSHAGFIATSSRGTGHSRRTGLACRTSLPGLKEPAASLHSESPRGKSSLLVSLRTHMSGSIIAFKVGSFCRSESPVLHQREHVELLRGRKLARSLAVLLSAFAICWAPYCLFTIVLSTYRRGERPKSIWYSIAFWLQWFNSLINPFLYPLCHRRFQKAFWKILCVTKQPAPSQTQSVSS
row,EC50 [nM],Structure (SMILES)
1,1120,CN(C)CCN(C)c1cc(C(C)(C)C)nc(N)n1
2,195,COc1cccc(OC)c1-c1cc(N2CCN(C)CC2)nc(N)n1
3,2400,CN(C)CCN1CCN(c2cc(C(C)(C)C)nc(N)n2)CC1
4,7940,CN1CCN(c2cc(-c3cncnc3)nc(N)n2)CC1
5,8320,CN1CCN(c2nc(N)ncc2-c2ccccc2)CC1
6,23400,CC1CCN(c2cc(C(C)(C)C)nc(N)n2)CC1
7,234,CN1CCN(c2cc(-c3cccc(C#N)c3)nc(N)n2)CC1
8,31.6,CN1CCN(c2cc(-c3cccc(Cl)c3)nc(N)n2)CC1
9,37.2,CN1CCN(c2cc(-c3ccc(Cl)cc3)nc(N)n2)CC1
10,316,CN1CCN(c2cc(C34CC5CC(CC(C5)C3)C4)nc(N)n2)CC1
11,102,CN1CCN(c2cc(-c3cn(C)cn3)nc(N)n2)CC1
12,43.7,COc1ccccc1-c1cc(N2CCN(C)CC2)nc(N)n1
13,3630,CN1CCN(c2cc(N3CCC(N(C)C)C3)nc(N)n2)CC1 (configuration not stated)
14,1820,CN1CCN(c2cc(-c3cn[nH]c3)nc(N)n2)CC1
15,12300,CN1CCN(c2cc(N3CCNC3=O)nc(N)n2)CC1
16,219,CN1CCN(c2cc(-c3cnn(C)c3)nc(N)n2)CC1
17,102,COc1cccc(-c2cc(N3CCN(C)CC3)nc(N)n2)c1
18,275,CN1CCN(c2cc(-c3ccc(I)cc3)nc(N)n2)CC1
19,339,CN1CCN(c2cc(N3CCOCC3)nc(N)n2)CC1
20,69.2,CN1CCN(c2cc(N3CCCC3)nc(N)n2)CC1
21,56.2,Cc1ccc(-c2cc(N3CCN(C)CC3)nc(N)n2)cc1
22,15.5,CN1CCN(c2cc(-c3ccc(F)nc3F)nc(N)n2)CC1
23,9770,CN(C)CCCN(C)c1cc(C(C)(C)C)nc(N)n1

row,Structure (SMILES),EC50 [nM]
1,COc1cnc(N)nc1N1CCN(C)CC1,631
2,CN1CCN(c2nc(N)nc(C(C)(C)C)n2)CC1,251
3,CCN(CC)c1cc(N2CCN(C)CC2)nc(N)n1,355
4,CN1CCN(c2cc(N)nc(C(C)(C)C)n2)CC1,4680
5,CN1CCN(c2cc(C(C)(C)C)ncn2)CC1,933
6,CN1CCC(c2cc(C(C)(C)C)nc(N)n2)CC1,3630

# Target: Histamine H4 receptor (Rattus norvegicus) (UniProt Q91ZY1)
# Test: Agonist activity at rat histamine H4 receptor expressed in HEK293 cells coexpressing Gqi5 protein assessed as calcium flux by FLIPR assay relative to histamine
# Format: functional, cell-based
# Details: not given
# Chain of Histamine H4 receptor (Rattus norvegicus) (Q91ZY1 whole entry): as above
row,Efficacy [%],Structure (SMILES)
1,55,CN(C)CCN(C)c1cc(C(C)(C)C)nc(N)n1
2,81,COc1cccc(OC)c1-c1cc(N2CCN(C)CC2)nc(N)n1
3,66,CN(C)CCN1CCN(c2cc(C(C)(C)C)nc(N)n2)CC1
4,61,CN1CCN(c2cc(-c3cncnc3)nc(N)n2)CC1
5,72,CN1CCN(c2nc(N)ncc2-c2ccccc2)CC1
6,64,CC1CCN(c2cc(C(C)(C)C)nc(N)n2)CC1
7,48,CN1CCN(c2cc(-c3cccc(C#N)c3)nc(N)n2)CC1
8,50,CN1CCN(c2cc(-c3cccc(Cl)c3)nc(N)n2)CC1
9,74,CN1CCN(c2cc(-c3ccc(Cl)cc3)nc(N)n2)CC1
10,61,CN1CCN(c2cc(C34CC5CC(CC(C5)C3)C4)nc(N)n2)CC1
11,91,CN1CCN(c2cc(-c3cn(C)cn3)nc(N)n2)CC1
12,68,COc1ccccc1-c1cc(N2CCN(C)CC2)nc(N)n1
13,62,CN1CCN(c2cc(N3CCC(N(C)C)C3)nc(N)n2)CC1 (configuration not stated)
14,53,CN1CCN(c2cc(-c3cn[nH]c3)nc(N)n2)CC1
15,27,CN1CCN(c2cc(N3CCNC3=O)nc(N)n2)CC1
16,78,CN1CCN(c2cc(-c3cnn(C)c3)nc(N)n2)CC1
17,69,COc1cccc(-c2cc(N3CCN(C)CC3)nc(N)n2)c1
18,58,CN1CCN(c2cc(-c3ccc(I)cc3)nc(N)n2)CC1
19,87,CN1CCN(c2cc(N3CCOCC3)nc(N)n2)CC1
20,79,CN1CCN(c2cc(N3CCCC3)nc(N)n2)CC1
21,81,Cc1ccc(-c2cc(N3CCN(C)CC3)nc(N)n2)cc1
22,82,CN1CCN(c2cc(-c3ccc(F)nc3F)nc(N)n2)CC1
23,40,CN(C)CCCN(C)c1cc(C(C)(C)C)nc(N)n1

row,Structure (SMILES),Efficacy [%]
1,COc1cnc(N)nc1N1CCN(C)CC1,65
2,CN1CCN(c2nc(N)nc(C(C)(C)C)n2)CC1,70
3,CCN(CC)c1cc(N2CCN(C)CC2)nc(N)n1,90
4,CN1CCN(c2cc(N)nc(C(C)(C)C)n2)CC1,50
5,CN1CCN(c2cc(C(C)(C)C)ncn2)CC1,79
6,CN1CCC(c2cc(C(C)(C)C)nc(N)n2)CC1,55

# Target: Histamine H4 receptor (Homo sapiens, UniProt Q9H3N8)
# Details: HEK293
row,pKb,Structure (SMILES)
1,5.71,CN(C)CCN(C)c1cc(C(C)(C)C)nc(N)n1
2,6.81,COc1cccc(OC)c1-c1cc(N2CCN(C)CC2)nc(N)n1
3,6.44,CN(C)CCN1CCN(c2cc(C(C)(C)C)nc(N)n2)CC1
4,5.84,CN1CCN(c2cc(-c3cncnc3)nc(N)n2)CC1
5,5.32,CN1CCN(c2nc(N)ncc2-c2ccccc2)CC1
6,5.2,CC1CCN(c2cc(C(C)(C)C)nc(N)n2)CC1
7,8.06,CN1CCN(c2cc(-c3cccc(C#N)c3)nc(N)n2)CC1
8,8.24,CN1CCN(c2cc(-c3cccc(Cl)c3)nc(N)n2)CC1
9,8.32,CN1CCN(c2cc(-c3ccc(Cl)cc3)nc(N)n2)CC1
10,7.59,CN1CCN(c2cc(C34CC5CC(CC(C5)C3)C4)nc(N)n2)CC1
11,8.05,CN1CCN(c2cc(-c3cn(C)cn3)nc(N)n2)CC1
12,8.86,COc1ccccc1-c1cc(N2CCN(C)CC2)nc(N)n1
13,5.76,CN1CCN(c2cc(N3CCC(N(C)C)C3)nc(N)n2)CC1 (configuration not stated)
14,8.38,CN1CCN(c2cc(-c3cn[nH]c3)nc(N)n2)CC1
15,5.38,CN1CCN(c2cc(N3CCNC3=O)nc(N)n2)CC1
16,7.31,CN1CCN(c2cc(-c3cnn(C)c3)nc(N)n2)CC1
17,8.12,COc1cccc(-c2cc(N3CCN(C)CC3)nc(N)n2)c1
18,7.83,CN1CCN(c2cc(-c3ccc(I)cc3)nc(N)n2)CC1
19,7.16,CN1CCN(c2cc(N3CCOCC3)nc(N)n2)CC1
20,8.41,CN1CCN(c2cc(N3CCCC3)nc(N)n2)CC1
21,8.06,Cc1ccc(-c2cc(N3CCN(C)CC3)nc(N)n2)cc1
22,8.27,CN1CCN(c2cc(-c3ccc(F)nc3F)nc(N)n2)CC1
23,5.13,CN(C)CCCN(C)c1cc(C(C)(C)C)nc(N)n1

row,Structure (SMILES),pKb
1,COc1cnc(N)nc1N1CCN(C)CC1,6.9
2,CN1CCN(c2nc(N)nc(C(C)(C)C)n2)CC1,7.04
3,CCN(CC)c1cc(N2CCN(C)CC2)nc(N)n1,7.55
4,CN1CCN(c2cc(N)nc(C(C)(C)C)n2)CC1,6.28
5,CN1CCN(c2cc(C(C)(C)C)ncn2)CC1,7.07
6,CN1CCC(c2cc(C(C)(C)C)nc(N)n2)CC1,5.87
